Each block holds one compound with its values, some of them ahead of it.
Tests used:
[1] = test system: E. coli; assay: Time-kill study; type: cell-based; conditions: for time to completely remove/kill all bacteria: 12.5 μg/mL
Description: The killing activity was monitored for the first 2 h. The concentrations for compound 11 were 2×MIC, 4×MIC, and 8×MIC, respectively.
Time-kill studies were conducted to investigate the bacterial killing kinetics of compounds 11 and 12 by using E. Coli. Briefly, the bacteria […] grew to mid-logarithmic phase in TSB medium, from which the suspension (10^6 CFU/ml) was made. The suspension was incubated with different concentrations of 11 or 12 for 10 min, 30 min, 1 h and 2 h respectively. The mixtures were diluted by 10^2 to 10^4 fold and spread on TSB agar plates. After incubation at 37° C. overnight, the colonies on the plates were counted and plotted against the incubation time. […] Cell colonies were counted in agar plates at 12.5, 25, and 50 μg/mL. Compound 11 at the concentration of 12.5 or 25 μg/mL completely removed all bacteria in 2 hours, and at 50 μg/mL it completely removed bacteria in 0.5 hour. Compound 12 killed E. Coli completely in 0.5 hour at the concentration of 12.5 μg/mL.

[2] = test system: six bacteria strains; assay: MIC, summary statements over the panel of tested bacteria; type: cell-based
Description: (§1) Minimum Inhibitory Concentrations (MICs) against Bacteria. The antimicrobial activity of the compounds was tested on the following six bacteria strains: K. pneumoniae (ATCC 13383), P. aeruginosa (ATCC27853), E. coli (ATCC 25922), vancomycin-resistant Enterococcus faecalis (ATCC 700802), Methicillin-resistant S. aureus (MRSA, ATCC 33591), Methicillin-resistant S. epidermidis (MRSE, RP62A). The procedures were followed as reported previously (Hancock et al., Immunobiology 2006, 211, 315-322). Briefly, a single colony of each bacterium was inoculated in 3 mL TSB medium and incubated overnight at 37° C. Then the bacteria culture was diluted at 1:100 and the bacteria were allowed to grow to mid-logarithmic phase. Next, 50 μL of 2-fold serial dilutions of compounds (0.1-25 μg/mL) were added the 96-well plate containing aliquots of 50 μL of bacteria suspension (1×10^6 CFU/mL) in each well. The mixture was incubated at 37° C. for 16 h, and their absorption at 600 nm wavelength was read on a Biotek Synergy HT microtiter plate reader. […] The experiments were repeated at least three times with duplicates each time. HC50 means the concentration causing 50% hemolysis.

[3] = test system: E. coli (ATCC 25922); assay: Minimum inhibitory concentration (MIC) against E. coli; type: cell-based; conditions: Escherichia coli, ATCC25922; Gram −; 16 h, 37° C.
Description: as §1

[4] = test system: P. aeruginosa (ATCC27853); assay: MIC against P. aeruginosa; type: cell-based
Description: as §1

[5] = test system: K. pneumoniae (ATCC 13383); assay: MIC against K. pneumoniae; type: cell-based; conditions: Klebsiella pneumoniae, ATCC13383; Gram −; 16 h, 37° C.
Description: as §1

[6] = test system: Methicillin-resistant S. aureus (MRSA, ATCC 33591); assay: MIC against MRSA; type: cell-based; conditions: Staphylococcus aureus; Gram +; 16 h, 37° C.
Description: as §1

[7] = test system: Methicillin-resistant S. epidermidis (MRSE, RP62A); assay: MIC against MRSE; type: cell-based; conditions: Staphylococcus epidermidis, Gram +, 16 h, 37° C.
Description: as §1

[8] = test system: vancomycin-resistant Enterococcus faecalis (ATCC 700802); assay: MIC against VRE; type: cell-based; conditions: Gram +; 16 h, 37° C.
Description: as §1

[9] = test system: human red blood cells (hRBCs); assay: Hemolytic assay; type: cell-based; conditions: concentration causing 50% hemolysis, 37° C., 1 h
Description: Hemolytic assays. The freshly drawn, K2EDTA treated human red blood cells (hRBCs) were washed with 1×PBS buffer, and centrifuged at 3500 rpm for 10 min. The step was repeated until the supernatant became clear. The supernatant was removed, and the RBCs were diluted into 5% v/v suspension. 50 μL of the suspension was incubated with 50 μL of compounds of different concentrations at 37° C. for 1 h. The mixture was centrifuged at 3500 rpm for 10 min. Subsequently, to 30 μL of the supernatant 100 μL PBS was added, and the absorbance of the mixture at 540 nm was read on a Biotek Synergy HT plate reader. The positive control was 2% Triton X-100, and the negative control was 1×PBS alone. The hemolysis activity was calculated by the formula % hemolysis=(Abssample−AbsPBS)/(AbsTriton−AbsPBS)×100%. The experiment was repeated at least three times with duplicates each time.

[10] = test system: S. aureus; assay: Fluorescence microscopy (DAPI/PI) of bacterial membranes, S. aureus; type: cell-based; conditions: 10 μg/mL, 2 h
Description: (§2) Fluorescence microscopy studies were conducted to evaluate the ability of compound 12 to compromise membranes of S. aureus (Gram-positive bacterium) and E. coli (Gram-negative bacterium). Fluorescent agent 4′,6-diamidino-2-phenylindole (DAPI) was used to stain membranes of bacterial cells with blue fluorescence regardless of cell viability, and the red fluorescence of propidium iodide (PI) due to the DNA intercalation was used to stain impaired membranes. After MRSA and E. Coli grew to mid-logarithmic phase, the compound 12 was incubated with the bacteria at 37° C. for 2 h. The mixture was then centrifuged at 5000 rpm for 15 min. The cell pellets were washed with the PBS buffer for three times, and incubated with PI (5 μg/mL) and DAPI (10 μg/mL) for 15 min sequentially on ice in the dark. The mixture was then centrifuged and the pellets were washed with the PBS buffer. Next, 10 μL of the samples were placed on chamber slides and observed under Zeiss Axio Image Zloptical microscope using 100× oil-immersion objective.

[11] = test system: E. coli; assay: Fluorescence microscopy (DAPI/PI) of bacterial membranes, E. coli; type: cell-based; conditions: 10 μg/mL, 2 h
Description: as §2

[12] = test system: MRSA; assay: Drug-resistance study, 14 passages, MRSA; type: cell-based, S. aureus; conditions: incubated at ½ MIC every day
Description: (§3) Bacterial resistance tests were conducted using compound 12. The compound was incubated with either MRSA or E. Coli in the well at the concentration of half-MIC (½ MIC, 10^6 CFU/ml) every day and tested for their activity through 14 successive passages.

[13] = test system: E. coli; assay: Drug-resistance study, 14 passages, E. coli; type: cell-based; conditions: incubated at ½ MIC every day
Description: as §3

SMILES: CCCCCCN1C(=N)N(CC(=O)Nc2ccc(NC(=O)CN3C[C@H](Cc4ccccc4)N(CCCCCC)C3=N)cc2)C[C@@H]1Cc1ccccc1 [Compound 11]
time to completely remove/kill all bacteria [1]: 2 h
time to completely remove bacteria ([1]; 50 μg/mL): 0.5 h
antibacterial activity against the tested bacteria (in words) [2]: potent and broad-spectrum activity

SMILES: N#CNc1cccc(NC(=O)CN2C[C@H](Cc3ccccc3)N(CCCc3ccccc3)C2=N)c1 [Compound 7]
antibacterial activity against the tested bacteria (in words) [2]: negligible activity

SMILES: CCCCCCCCN1C(=N)N(CC(=O)Nc2cccc(NC(=O)CN3C[C@H](Cc4ccccc4)N(CCCCCCCC)C3=N)c2)C[C@@H]1Cc1ccccc1 [Compound 18]
antibacterial activity against the tested bacteria (in words) [2]: decreased activity

SMILES: CCCCCCCCN1C(=N)N(CC(=O)Nc2ccc(NC(=O)CN3C[C@H](Cc4ccccc4)N(CCCCCCCC)C3=N)cc2)C[C@@H]1Cc1ccccc1 [Compound 17]
antibacterial activity against the tested bacteria (in words) [2]: decreased activity

SMILES: N=C1N(CC(=O)Nc2cccc(NC(N)=O)c2)C[C@H](Cc2ccccc2)N1CCCc1ccccc1 [Compound 8]
antibacterial activity against the tested bacteria (in words) [2]: negligible activity

MIC [3]: 1.5 to 3 µg/mL
MIC ([4]; Pseudomonas aeruginosa, ATCC27853, Gram −, 16 h, 37° C.): > 25 µg/mL
MIC [5]: > 25 µg/mL
MIC [6]: 0.75 µg/mL
MIC [7]: 1.5 µg/mL
MIC [8]: 6 to 12 µg/mL
SMILES: CCCCCCN1C(=N)N(CC(=O)NCCCOCCOCCOCCCNC(=O)CN2C[C@H](Cc3ccccc3)N(CCCCCC)C2=N)C[C@@H]1Cc1ccccc1 [Compound 16]
Hemolysis (HC50) [9]: 200 µg/mL
antibacterial activity against the tested bacteria (in words) [2]: reduced activity

SMILES: CCCCCCN1C(=N)N(CC(=O)NCCCCCCCCNC(=O)CN2C[C@H](Cc3ccccc3)N(CCCCCC)C2=N)C[C@@H]1Cc1ccccc1 [Compound 15]
activity against P. aeruginosa (in words) [4]: reduced activity

SMILES: CCCCCCN1C(=N)N(CC(=O)Nc2cccc(NC(=O)CN3C[C@H](Cc4ccccc4)N(CCCCCC)C3=N)c2)C[C@@H]1Cc1ccccc1 [Compound 12]
membrane disruption (red fluorescence under the PI channel) [10]: membranes of these bacteria were disrupted
membrane disruption (red fluorescence under the PI channel) [11]: membranes of these bacteria were disrupted
time to completely remove/kill all bacteria [1]: 0.5 h
MIC after 14 passages [12]: virtually constant
MIC after 14 passages [13]: virtually constant
antibacterial activity against the tested bacteria (in words) [2]: potent and broad-spectrum activity

MIC [3]: 0.75 to 1.5 µg/mL
SMILES: CCCCCCN1C(=N)N(CC(=O)NCCCCNC(=O)CN2C[C@H](Cc3ccccc3)N(CCCCCC)C2=N)C[C@@H]1Cc1ccccc1 [Compound 13]
activity against P. aeruginosa (in words) [4]: reduced activity

MIC [6]: 0.75 to 1.5 µg/mL
SMILES: CCCCCCN1C(=N)N(CC(=O)Nc2cccc(NC(=O)CN3C[C@H](CC(C)C)N(CCCCCC)C3=N)c2)C[C@@H]1CC(C)C [Compound 23]
antibacterial activity against the tested bacteria (in words) [2]: slightly less effective

SMILES: CCCCCCN1C(=N)N(CC(=O)NCCCCCCNC(=O)CN2C[C@H](Cc3ccccc3)N(CCCCCC)C2=N)C[C@@H]1Cc1ccccc1 [Compound 14]
activity against P. aeruginosa (in words) [4]: reduced activity
